Counter-ions that a name gives are not always drawn.
Columns and labels:
Keap1/NRF2 = target: T1, Keap1/NRF2 (Homo sapiens, UniProt Q14145); assay: NRF2-Keap1 FP Assay (Kelch domain (321-609) of Keap1, TAMRA-labeled NRF2 ETGE peptide); type: binding; conditions: Keap1 (321-609) 20 nM, Tamra labeled peptide 8 nM
T1 construct: Keap1 (321-609) is diluted to 40 nM (2×) in 1× assay buffer
Description: One model for the NRF2-Keap1 interaction is through two binding sites in the Neh2 domain on NRF2. The two sites are referred to as the DLG binding motif (latch domain, uM affinity) and the ETGE binding motif (hinge domain, nM affinity). The Keap1 protein consists of an N-terminal region (NTR), a broad complex, tramtrack, and brick a′ brac domain (BTB), an intervening region (IVR), a double glycine repeat domain (DGR or Kelch), and a C-terminal region. The DLG and ETGE motifs of NRF2's Neh2 domain bind to the Kelch domain of Keap1 at different affinities. In the Keap1 Kelch fluorescence polarization (FP) assay, a TAMRA-labeled 16 mer peptide (AFFAQLQLDEETGEFL) containing the ETGE motif of NRF2 and the Kelch domain (321-609) of Keap1 is used. The assay determines if a compound interferes with the binding between Keap1 […] and the TAMRA-labeled peptide. Binding of TAMRA-labeled NRF2 peptide to Keap1 (321-609) results in a high FP signal. If a compound interferes with the binding between the peptide and the protein, it will cause the assay signal to decrease. Thus, assay signal is inversely proportional to binding inhibition.
100 nl of 100× compound dose response curves (serial 3-fold dilutions) in DMSO are stamped using an Echo liquid handling system (Labcyte) into 384-well low volume black assay plates (Greiner, #784076), with DMSO in columns 6 and 18. The top concentration of compound is located in columns 1 and 13. Keap1 (321-609) is diluted to 40 nM (2×) in 1× assay buffer (50 mM Tris, pH 8.0, 100 mM NaCl, 5 mM MgCl2, 1 mM DTT, 2 mM CHAPS, and 0.005% BSA) and 5 ul is added using a Multidrop Combi (Thermo Electron Corporation) equipped with a metal tip dispenser to all wells of the compound plate, except column 18. Column 18 receives only 5 ul of assay buffer. Immediately, 5 uL of 16 nM (2×) of Tamra labeled peptide (AFFAQLQLDEETGEFL, 21st Century Biochemicals) is added to all wells of the plate. The plates are spun at 500 rpm for 1 min, incubated for 1 hr at room temperature, and read on an Analyst GT (Molecular Devices) equipped with excitation (530/25 nm) and emission (580/10 nm) filters designed for Tamra probes. A 561 nm dichroic mirror is also used in the Analyst. The final assay concentrations of Keap1 (321-609) and Tamra labeled peptide are 20 nM and 8 nM, respectively. Fluorescence measurements, represented as mP, are used in the transformation of the data. Compound activity is calculated based on percent inhibition, normalized against controls in the assay (Control 1 contains the Tamra peptide and Keap1 (321-609) together (0% response) and control 2 contains the Tamra peptide alone (100% response)). Data analysis is handled using the software package Abase XE (Surrey, United Kingdom. The % inhibition values are calculated by the equation: 100−(100*((compound response-average control 2)/(average control 1−average control 2))). For calculation of pIC50s, Abase XE uses a four parameter equation.

NRF2/Keap1 = target: T2, NRF2/Keap1 (Homo sapiens, UniProt Q14145); assay: NRF2-Keap1 TR-FRET Low Protein Assay (full length NRF2 and full length Keap1); type: binding; conditions: low protein: 1.25 nM Keap1 FlagHis, 2.5 nM biotin-NRF2 added
T2 construct: full length NRF2 protein and full length Keap1 protein (Keap1 exists a dimer) are used
Description: In the NRF2-Keap1 TR-FRET (time-resolved fluorescence resonance energy transfer) low protein assay, full length NRF2 protein and full length Keap1 protein (Keap1 exists a dimer) are used. The assay detects a compound's ability to displace the binding of Keap1 FlagHis with biotinylated Avi-NRF2 protein. Biotin-NRF2 binds to streptavidin-europium (a component of the detection mix) and Keap1 FlagHis is recognized by anti-Flag APC (allophycocyanin) antibody (also a component of the detection mix). If binding occurs between the two proteins, there will be an energy transfer from the Eu+3 (donor) at 615 nm to the APC (acceptor) at 665 nm. A potential NRF2 inhibitor will cause a reduction in the TR-FRET signal by interfering with the binding of Keap1 to NRF2.
Ten nanoliters of 100× compound dose response curves (serial 3-fold dilutions) in DMSO are stamped using an Echo liquid handling system (Labcyte) into 384-well, low volume, black assay plates (Greiner, #784076), with DMSO in columns 6 and 18. An additional 90 nl DMSO is added to each well, to bring the total volume to 100 nl per well. The top concentration of compound is located in columns 1 and 13, with the serial dilutions going across the row. All reagents are diluted in assay buffer (50 mM Tris, pH 8.0, 5 mM MgCl2, 100 mM NaCl, 0.005% BSA, 1 mM DTT, and 2 mM CHAPS. The BSA, DTT, and CHAPS are added to the assay buffer on the day of assay. Using a Multidrop Combi (Thermo Electron Corporation) equipped with a metal tip dispenser, 5 ul of 1.25 nM Keap1 FlagHis protein is added to all wells of the compound plate, with the exception of the wells in column 18. Wells in column 18 receive 5 ul of assay buffer instead. Plates are centrifuged at 500 rpm for 1 minute, covered with a plate lid, and incubated at 37° C. for 2.25 hours. Plates are then removed from the incubator and allowed to cool to RT for 15 minutes. Five microliters of 2.5 nM biotin-NRF2 protein is then added to all wells of the plates and the plates are spun at 500 rpm for 1 minute, followed by incubating at 4° C. for 1.25 hours. The plates are then allowed to warm to RT for 15 minutes, followed by the addition of 10 ul of detection mix (1 nM Streptavidin Eu+ W1024 and 5 ug/ml mouse anti-DYKDDDDK IgG conjugated to SureLight APC antibody; both from Columbia Biosciences) to all wells. Plates are spun at 500 rpm for 1 minute, incubated for 1 hour at RT, and read on an Envision plate reader using a 320 nm excitation filter and 615 nm and 665 nm emission filters. Compound response (% inhibition) and potency (pIC50) are calculated based on the ratio of the two emissions (665 nm/615 nm) and then the transformed data is normalized against controls in the assay (control 1=1% DMSO in the presence of NRF2 and Keap1 protein and control 2=1% DMSO in the presence of only the NRF2 protein). Data analysis is handled using the software package Abase XE (Surrey, United Kingdom). The % inhibition values are calculated from the ratio (transformed) data by the equation: 100−(100*(compound response-average control 2)/(average control 1−average control 2)). For calculation of pIC50s, Abase XE uses a four parameter equation.

[1] = test system: NQO1 specific enzyme activity in BEAS-2B cells; assay: BEAS-2B NQO1 MTT Assay; type: cell-based; conditions: Homo sapiens, BEAS-2B, 48 h, NQO1 specific activity induction
Description: NAD(P)H:quinone oxidoreductase 1 (NQO1), also called DT diaphorase, is a homodimeric FAD-containing enzyme that catalyzes obligatory NAD(P)H-dependent two-electron reductions of quinones and protects cells against the toxic and neoplastic effects of free radicals and reactive oxygen species arising from one-electron reductions. The transcription of NQO1 is finely regulated by NRF2, and thus NQO1 activity is a good marker for NRF2 activation. On day one, frozen BEAS-2B cells (ATCC) are thawed in a water bath, counted, and re-suspended at a concentration of 250,000 cells/mL. Fifty microliters of cells are plated in 384 well black clear-bottomed plates. Plates are incubated at 37° C., 5% CO2 overnight. On day two, plates are centrifuged and 50 nL of compound or controls are added to the cells. Plates are then incubated at 37° C., 5% CO2 for 48 hours. On day four, medium is aspirated from the plate and crude cell lysates are made by adding 13 uL of 1× Cell Signaling Technologies lysis buffer with 1 Complete, Mini, EDTA-free Protease Inhibitor Tablet (Roche) for each 10 mL of lysis buffer. After lysis plates are incubated for 20 minutes at room temperature. Two microliters of lysate are removed for use in Cell Titer Glo assay (Promega) and MTT cocktail is prepared (Prochaska et. al. 1998) for measurement of NQO1 activity. Fifty microliters of MTT cocktail is added to each well, plate is centrifuged, and analyzed on an Envision plate reader (Perkin Elmer) using Absorbance 570 nm label for 30 minutes. Product formation is measured kinetically and the pEC50 of NQO1 specific activity induction is calculated by plotting the change in absorbance (Delta OD/min) versus the log of compound concentration followed by 3-parameter fitting.

T1 sequence (Q14145 321-609): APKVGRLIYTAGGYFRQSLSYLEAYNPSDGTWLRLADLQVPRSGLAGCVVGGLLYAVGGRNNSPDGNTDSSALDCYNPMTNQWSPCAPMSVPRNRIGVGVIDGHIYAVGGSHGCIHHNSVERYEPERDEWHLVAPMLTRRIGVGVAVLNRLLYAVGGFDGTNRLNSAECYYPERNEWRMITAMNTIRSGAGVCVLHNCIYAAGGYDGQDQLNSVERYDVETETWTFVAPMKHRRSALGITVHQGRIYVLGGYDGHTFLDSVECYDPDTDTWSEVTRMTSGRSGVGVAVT
T2 sequence (Q14145 whole entry): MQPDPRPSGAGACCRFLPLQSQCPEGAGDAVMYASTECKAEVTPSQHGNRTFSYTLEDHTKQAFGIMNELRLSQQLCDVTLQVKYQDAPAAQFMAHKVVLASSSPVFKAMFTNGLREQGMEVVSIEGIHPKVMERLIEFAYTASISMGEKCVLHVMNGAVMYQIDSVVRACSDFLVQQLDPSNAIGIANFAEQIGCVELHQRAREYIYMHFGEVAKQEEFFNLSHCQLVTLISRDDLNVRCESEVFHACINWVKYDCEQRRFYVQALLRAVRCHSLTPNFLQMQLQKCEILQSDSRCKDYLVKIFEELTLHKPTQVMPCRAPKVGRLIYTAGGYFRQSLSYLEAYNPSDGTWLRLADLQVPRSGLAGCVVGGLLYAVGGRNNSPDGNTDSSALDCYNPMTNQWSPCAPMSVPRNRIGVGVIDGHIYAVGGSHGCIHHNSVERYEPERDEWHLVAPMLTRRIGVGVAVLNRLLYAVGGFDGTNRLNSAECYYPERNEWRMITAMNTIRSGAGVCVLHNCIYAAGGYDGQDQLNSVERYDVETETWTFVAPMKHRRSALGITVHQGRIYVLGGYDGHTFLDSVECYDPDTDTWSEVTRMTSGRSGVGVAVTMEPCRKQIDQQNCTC

| IC50 (Keap1/NRF2) | IC50 (NRF2/Keap1) | SMILES | EC50 [1] |
| --- | --- | --- | --- |
| > 10000 nM | 1000 to 10000 nM | O=C(O)c1cnn(-c2cccc(C3CCCN(CC4CCCCC4)C3)c2)c1C1CC1 (stereo not drawn) [Example 28, 1-(3-(1-(cyclohexylmethyl)piperidin-3-yl)phenyl)-5-cyclopropyl-1H-pyrazole-4-carboxylic Acid, Hydrochloride] | 1000 to 10000 nM |
| 100 to 1000 nM | 10 to 100 nM | Cn1cc([C@@H]2C[C@H]2c2c(C(=O)O)cnn2-c2cccc(C3CCCN(CCc4ccccc4)C3)c2)nn1 (stereo partly drawn) [Example 29, 5-((1R,2R)-2-(1-Methyl-1H-1,2,3-triazol-4-yl)cyclopropyl)-1-(3-(1-phenethylpiperidin-3-yl)phenyl)-1H-pyrazole-4-carboxylic Acid, Hydrochloride] | 1000 to 10000 nM |
| 10 to 100 nM | < 10 nM | Cn1cc([C@@H]2C[C@H]2c2c(C(=O)O)cnn2-c2cccc(C3CCCN(S(=O)(=O)c4ccccc4)C3)c2)nn1 (stereo partly drawn) [Example 30, 5-((1R,2R)-2-(1-methyl-1H-1,2,3-triazol-4-yl)cyclopropyl)-1-(3-(1-(phenylsulfonyl)piperidin-3-yl)phenyl)-1H-pyrazole-4-carboxylic Acid] | 1000 to 10000 nM |
| 100 to 1000 nM | 10 to 100 nM | Cn1cc([C@@H]2C[C@H]2c2c(C(=O)O)cnn2-c2cccc(C3CCCN(C(=O)CC4CCCCC4)C3)c2)nn1 (stereo partly drawn) [Example 31, 1-(3-(1-(2-cyclohexylacetyl)piperidin-3-yl)phenyl)-5-((1R,2R)-2-(1-methyl-1H-1,2,3-triazol-4-yl)cyclopropyl)-1H-pyrazole-4-carboxylic Acid] | 100 to 1000 nM |
| 10 to 100 nM | 10 to 100 nM | Cn1cc([C@@H]2C[C@H]2c2c(C(=O)O)cnn2-c2cccc(C3CCCN(C(=O)C(C)(C)C)C3)c2)nn1 (stereo partly drawn) [Example 32, 5-((1R,2R)-2-(1-methyl-1H-1,2,3-triazol-4-yl)cyclopropyl)-1-(3-(1-pivaloylpiperidin-3-yl)phenyl)-1H-pyrazole-4-carboxylic Acid] | 100 to 1000 nM |
| 100 to 1000 nM | 10 to 100 nM | Cn1cc([C@@H]2C[C@H]2c2c(C(=O)O)cnn2-c2cccc(C3CCCN(C(=O)c4ccccc4)C3)c2)nn1 (stereo partly drawn) [Example 33, 1-(3-(1-benzoylpiperidin-3-yl)phenyl)-5-((1R,2R)-2-(1-methyl-1H-1,2,3-triazol-4-yl)cyclopropyl)-1H-pyrazole-4-carboxylic Acid] | 1000 to 10000 nM |
| 100 to 1000 nM | 10 to 100 nM | CCC[C@@H]1CCCCN1C(=O)N1CCCC(c2cccc(-n3ncc(C(=O)O)c3[C@@H]3C[C@H]3c3cn(C)nn3)c2)C1 (stereo partly drawn) [Example 34, 5-((1R,2R)-2-(1-Methyl-1H-1,2,3-triazol-4-yl)cyclopropyl)-1-(3-(1-((R)-2-propylpiperidine-1-carbonyl)piperidin-3-yl)phenyl)-1H-pyrazole-4-carboxylic Acid] | 1000 to 10000 nM |
| 10 to 100 nM | 10 to 100 nM | Cn1cc([C@@H]2C[C@H]2c2c(C(=O)O)cnn2-c2cccc(N3CCCC(CCC4CCCCC4)C3)c2)nn1 (stereo partly drawn) [Example 35, 1-(3-(3-(2-cyclohexylethyl)piperidin-1-yl)phenyl)-5-((1R,2R)-2-(1-methyl-1H-1,2,3-triazol-4-yl)cyclopropyl)-1H-pyrazole-4-carboxylic Acid] | 1 to 10 nM |

| SMILES | IC50 (Keap1/NRF2) | IC50 (NRF2/Keap1) | EC50 [1] |
| --- | --- | --- | --- |
| Cn1cc([C@@H]2C[C@H]2c2c(C(=O)O)cnn2-c2cccc(C3CCCN(C(=O)OC(C)(C)C)C3)c2)nn1 (stereo partly drawn) [Example 26, 1-(3-(1-(tert-butoxycarbonyl)piperidin-3-yl)phenyl)-5-((1R,2R)-2-(1-methyl-1H-1,2,3-triazol-4-yl)cyclopropyl)-1H-pyrazole-4-carboxylic Acid] | 10 to 100 nM | 10 to 100 nM | 1000 to 10000 nM |
| CC(C)(C)OC(=O)N1CCCC(c2cccc(-n3ncc(C(=O)O)c3C3CC3)c2)C1 (stereo not drawn) [Example 27, 1-(3-(1-(tert-Butoxycarbonyl)piperidin-3-yl)phenyl)-5-cyclopropyl-1H-pyrazole-4-carboxylic Acid] | > 10000 nM | 1000 to 10000 nM | 1000 to 10000 nM |
